Experimental findings from patent US8304422B2, “Compositions and methods for inhibition of the JAK pathway” (Rigel Pharmaceuticals, Inc., priority 2007, dated 2012) are described below.

In this test the test system is BaF3 V617F cells; UKE-1. Nature of the test: Proliferation Assay (Cell Titer-Glo; Example 7). Format: cell-based. To be noted: proliferation 72 hours, inhibit JAK2 activity, cell line (BaF3 V617F or UKE-1) not stated. The method in brief:
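BaF3 V617F cells (RPMI, 10% FBS) and UKE-1 cells (Iscove's DMEM, 10% FBS, 10% equine serum, 1 uM hydrocortisone) were exposed to 3-fold serially diluted compound in duplicate for 72 hours at 37 °C. Viable cell number quantified by Cell Titer-Glo luminescence; IC50 reported.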
A general note: In ATP-based viability assays light output follows the ATP content of the culture.
Consider “5-Chloro-N2-(3,5-dimethyl-5-methoxyphenyl)-N4-[(4-(dimethylamino)sulfonylamino)methylphenyl]-2,4-pyrimidinediamine [II-90]”, for which the half-inhibitory concentration (IC50) (usually the concentration at which inhibition is half-maximal) is 83.6 nM. This counts as double-digit nanomolar. In the case of `COc1c(C)cc(Nc2ncc(Cl)c(Nc3cccc(CNS(=O)(=O)C4CC4)c3)n2)cc1C` [II-192, 5-Chloro-N4-[3-(N-cyclopropylsulfonylamino)methylphenyl]-N2-[3,5-dimethyl-4-methoxyphenyl]-2,4-pyrimidinediamine] it was 378 nM; in that of `CCS(=O)(=O)N1CCc2cc(Nc3nc(Nc4cc(C)c(OC)c(C)c4)ncc3F)ccc2C1` [VIII-10, N4-[(N-ethylsulfonyl)-1,2,3,4-tetrahydroisoquinolin-6-yl]-N2-(3,5-dimethyl-4-methoxy)phenyl-5-fluoro-2,4-pyrimidinediamine], 716 nM; in that of `Cc1cnc(Nc2c(C)cc(OC(C)C)cc2C)nc1Nc1ccc(CCNS(=O)(=O)C2CC2)cc1` [II-64], 548 nM. As to `Cc1cnc(Nc2ccc(N3CCN(C)CC3)cc2)nc1Nc1ccc(CNS(=O)(=O)N(C)C)cc1` [II-104, N4-[(4-(Dimethylamino)sulfonylamino)methylphenyl]-5-methyl-N2-[4-(4-methyl-1-piperazinyl)phenyl]-2,4-pyrimidinediamine], the 50% inhibitory concentration (IC50) came out at 349 nM.

For `COc1cc(Nc2ncc(C)c(Nc3ccc(CNS(=O)(=O)C4CC4)cc3)n2)cc(C)c1OC` [II-197, 5-Methyl-N4-[4-(N-cyclopropylsulfonylamino)methylphenyl]-N2-[3,4-dimethoxy-5-methylphenyl]-2,4-pyrimidinediamine], half-maximal inhibition (IC50) required 92 nM. `Cc1cnc(Nc2ccc(N3CCN(S(C)(=O)=O)CC3)cc2)nc1Nc1ccc(CNS(=O)(=O)C2CC2)cc1` [II-206] showed an IC50 of 1560 nM. Compared with the last molecule, the IC50 is about 17-fold higher. `CCNS(=O)(=O)NCc1ccc(Nc2nc(Nc3cc(Cl)c(OC)c(OC)c3)ncc2C)cc1` [II-121, N2-(3-Chloro-4,5-dimethoxyphenyl)-N4-[(4-(ethylamino)sulfonylamino)methylphenyl]-5-methyl-2,4-pyrimidinediamine] yielded an IC50 of 363 nM. As for `CCCOc1c(C)cc(Nc2ncc(C)c(Nc3ccc(CNS(=O)(=O)NC4CC4)cc3)n2)cc1C` [II-165, N4-[4-((N-Cyclopropylamino)sulfonylamino)methylphenyl]-N2-(3,5-dimethyl-4-propoxyphenyl)-5-Methyl-2,4-pyrimidinediamine], the figure is 323 nM; as for “5-Chloro-N4-[(4-(dimethylamino)sulfonylamino)methylphenyl]-N2-[3,4,5-trimethoxyphenyl)-2,4-pyrimidinediamine [II-95]”, 250 nM.

Regarding `Cc1cnc(Nc2ccc(C3=NCCN3)cc2)nc1Nc1ccc2c(c1)C(NS(=O)(=O)C1CC1)CC2` (racemic) [V-6, (+/−)-N4-[1-(Cyclopropylsulfonylamino)indan-6-yl]-N2-[4-(4,5-dihydro-1H-imidazol-2-yl)phenyl]-5-methyl-2,4-pyrimidinediamine], inhibition was half-maximal at 1120 nM (IC50). In the case of `CCc1cnc(Nc2cc(C)c(OC)c(OC)c2)nc1Nc1ccc(CNS(=O)(=O)C2CC2)cc1` [II-82, N4-[4-(N-Cyclopropylsulfonylamino)methylphenyl]-N2-(3,4-dimethoxy-5-methylphenyl)-5-ethyl-2,4-pyrimidinediamine] it was 797 nM. In the case of `COc1cc(Nc2ncc(C)c(Nc3ccc(CNS(=O)(=O)N(C)C)cc3)n2)cc(C)c1OC` [II-100, 4-[(4-(Dimethylamino)sulfonylamino)methylphenyl]-N2-(3,4-dimethoxy-5-methylphenyl)-5-methyl-2,4-pyrimidinediamine] it was 179 nM. “5-Chloro-N4-[3,4-dihydro-1,1-dioxide-2H-1,2-benzothiazin-7-yl]-N2-[4-(N-methylpiperizin-4-yl)phenyl]-2,4-pyrimidinediamine [VII-5]”: the IC50 came out at 13200 nM.
